Assay results taken from patent EP0908457B1, “3-(1,2-benzisothiazol- and isoxazol-5-Y1)-2,4(1H,3H)-pyrimidinedione or thione and 3-(1,2-benzisothiazol- and isoxazol-5-y1)-4(3H)-pyrimidinone or thione herbicidal agents” (BASF AKTIENGESELLSCHAFT, priority 1997, dated 1999).

Key:
Format in all cases: in vivo
[1] = tested on: Cyperus iria; experiment: Preemergence weed control under flooded paddy conditions, CYPIR (Rice Flatsedge); details: preemergence, flooded paddy; as to herbicidal effect rating, CYPIR: meaning of each grade not given here
[2] = tested on: Sagittaria pygmaea, L.; experiment: Preemergence weed control under flooded paddy conditions, SAGPY (Arrowhead (Pygmaea)); details: preemergence, flooded paddy; as to herbicidal effect rating, SAGPY: meaning of each grade not given here
[3] = tested on: Cyperus serotinus, Rottb.; experiment: Preemergence weed control under flooded paddy conditions, CYPSE (Flatsedge); details: preemergence; as to herbicidal effect rating, CYPSE: meaning of each grade not given here
[4] = tested on: Monochoria vaginalis, Presl.; experiment: Preemergence weed control under flooded paddy conditions, MOOVA (Monochoria); details: preemergence, flooded paddy; as to herbicidal effect rating, MOOVA: meaning of each grade not given here
[5] = tested on: Echinochloa oryzoides (Ard.) Fritsch.; experiment: Preemergence weed control under flooded paddy conditions, ECHORC (Watergrass (Calif.)); details: preemergence, flooded paddy; as to herbicidal effect rating, ECHORC: meaning of each grade not given here
[6] = 0.0313 kg/ha, rated three to four weeks after treatment
[7] = 0.0625 kg/ha, rated three to four weeks after treatment
[8] = 0.1250 kg/ha, rated three to four weeks after treatment
[9] = 0.2500 kg/ha, rated three to four weeks after treatment
[10] = 0.0320 kg/ha, rated three to four weeks after treatment
[11] = 0.0620 kg/ha, rated three to four weeks after treatment
[12] = Rate 0.0320 kg/ha, rated three to four weeks after treatment
[13] = Rate 0.0620 kg/ha, rated three to four weeks after treatment
[14] = Rate 0.1250 kg/ha, rated three to four weeks after treatment
[15] = Rate 0.2500 kg/ha, rated three to four weeks after treatment
[16] = Rate 0.0320 kg/ha, rated 3-4 weeks after treatment
[17] = Rate 0.0620 kg/ha, rated 3-4 weeks after treatment
[18] = Rate 0.1250 kg/ha, rated 3-4 weeks after treatment
[19] = Rate 0.2500 kg/ha, rated 3-4 weeks after treatment

In the case of `CC(=O)OCc1nsc2ccc(-n3c(=O)cc(C(F)(F)F)n(C)c3=O)cc12` [Example 32, 3-[3-(Hydroxymethyl)-1,2-benzisothiazol-5-yl]-1-methyl-6-(trifluoromethyl)-2,4(1H,3H)-pyrimidinedione, acetate ester], the “herbicidal effect rating, CYPIR” value [1, 6] is reported as 4.0, the “herbicidal effect rating, CYPIR” value [1, 7] is reported as 6.0 and the “herbicidal effect rating, CYPIR” value [1, 8] is reported as 8.0. For the same compound, the “herbicidal effect rating, CYPIR” value [1, 9] was 9.0, the “herbicidal effect rating, SAGPY” value [2, 6] was 0.0 and the “herbicidal effect rating, SAGPY” value [2, 7] was 0.0. The “herbicidal effect rating, SAGPY” value [2, 8] was 2.0, the “herbicidal effect rating, SAGPY” value [2, 9] was 9.0 and the “herbicidal effect rating, CYPSE” value [3, 6] was 0.0. The “herbicidal effect rating, CYPSE” value [3, 7] was 0.0, the “herbicidal effect rating, CYPSE” value [3, 8] was 2.0 and the “herbicidal effect rating, CYPSE” value [3, 9] was 7.0. For the same compound, the “herbicidal effect rating, MOOVA” value [4, 6] was 8.0, the “herbicidal effect rating, MOOVA” value [4, 7] was 9.0 and the “herbicidal effect rating, MOOVA” value [4, 8] was 9.0. For the same compound, the “herbicidal effect rating, MOOVA” value [4, 9] was 9.0, the “herbicidal effect rating, ECHORC” value [5, 6] was 2.0 and the “herbicidal effect rating, ECHORC” value [5, 7] was 3.5. The “herbicidal effect rating, ECHORC” value [5, 8] was 4.5 and the “herbicidal effect rating, ECHORC” value [5, 9] was 7.5.

`Cn1c(C(F)(F)F)cc(=O)n(-c2ccc3snc(COC(=O)c4ccno4)c3c2)c1=O` [Example 475, 2,4(1H,3H)-Pyrimidinedione, 3-[3-(hydroxymethyl)-1,2-benzisothiazol-5-yl]-1-methyl-6-(trifluoromethyl)-, 5-isoxazolecarboxylate (ester)] gave a CYPIR herbicidal rating [1, 10] of 4.0, a CYPIR herbicidal rating [1, 11] of 6.0 and a CYPIR herbicidal rating [1, 8] of 9.0. It also gave a CYPIR herbicidal rating [1, 9] of 9.0, an SAGPY herbicidal rating [2, 10] of 0.0 and an SAGPY herbicidal rating [2, 11] of 4.0. For the same compound, the SAGPY herbicidal rating [2, 8] was 6.0, the SAGPY herbicidal rating [2, 9] was 7.0 and the CYPSE herbicidal rating [3, 10] was 0.0. The CYPSE herbicidal rating [3, 8] was 5.0, the CYPSE herbicidal rating [3, 9] was 7.0 and the MOOVA herbicidal rating [4, 10] was 9.0. The MOOVA herbicidal rating [4, 11] was 9.0, the MOOVA herbicidal rating [4, 8] was 9.0 and the MOOVA herbicidal rating [4, 9] was 9.0. For the same compound, the ECHORC herbicidal rating [5, 10] was 0.0, the ECHORC herbicidal rating [5, 11] was 0.0 and the ECHORC herbicidal rating [5, 8] was 2.0. For the same compound, the ECHORC herbicidal rating [5, 9] was 3.0.

In the case of `Cc1ccc(OCC(=O)n2cnc3ccccc32)c(-c2nsc3ccc(-n4c(=O)cc(C(F)(F)F)n(C)c4=O)cc23)c1` [Example 62], the “herbicidal effect rating, CYPIR” value [1, 6] is reported as 4.0, the “herbicidal effect rating, CYPIR” value [1, 7] is reported as 6.0 and the “herbicidal effect rating, CYPIR” value [1, 8] is reported as 9.0. The “herbicidal effect rating, CYPIR” value [1, 9] was 9.0, the “herbicidal effect rating, SAGPY” value [2, 6] was 0.0 and the “herbicidal effect rating, SAGPY” value [2, 7] was 1.0. For the same compound, the “herbicidal effect rating, SAGPY” value [2, 8] was 4.0, the “herbicidal effect rating, SAGPY” value [2, 9] was 7.0 and the “herbicidal effect rating, CYPSE” value [3, 6] was 0.0. The “herbicidal effect rating, CYPSE” value [3, 7] was 1.0, the “herbicidal effect rating, CYPSE” value [3, 8] was 2.0 and the “herbicidal effect rating, CYPSE” value [3, 9] was 9.0. For the same compound, the “herbicidal effect rating, MOOVA” value [4, 6] was 9.0, the “herbicidal effect rating, MOOVA” value [4, 7] was 9.0 and the “herbicidal effect rating, MOOVA” value [4, 8] was 9.0. For the same compound, the “herbicidal effect rating, MOOVA” value [4, 9] was 9.0, the “herbicidal effect rating, ECHORC” value [5, 6] was 6.0 and the “herbicidal effect rating, ECHORC” value [5, 7] was 9.0. For the same compound, the “herbicidal effect rating, ECHORC” value [5, 8] was 9.0 and the “herbicidal effect rating, ECHORC” value [5, 9] was 9.0.

In the case of `Cn1c(C(F)(F)F)cc(=O)n(-c2ccc3snc(C(C)(C)C(=O)OCc4ccccc4)c3c2)c1=O` [Example 396, 1,2-Benzisothiazole-3-acetic acid, 5-[3,6-dihydro-3-methyl-2,6-dioxo-4-(trifluoromethyl)-1(2H)-pyrimidinyl]-alpha,alpha-dimethyl-, benzyl ester], the “herbicidal effect rating, CYPIR” value [1, 12] is reported as 7.0, the “herbicidal effect rating, CYPIR” value [1, 13] is reported as 8.0 and the “herbicidal effect rating, CYPIR” value [1, 14] is reported as 9.0. The “herbicidal effect rating, CYPIR” value [1, 15] was 9.0, the “herbicidal effect rating, SAGPY” value [2, 12] was 7.0 and the “herbicidal effect rating, SAGPY” value [2, 13] was 7.0. The “herbicidal effect rating, SAGPY” value [2, 14] was 8.0, the “herbicidal effect rating, SAGPY” value [2, 15] was 8.0 and the “herbicidal effect rating, CYPSE” value [3, 12] was 0.0. For the same compound, the “herbicidal effect rating, CYPSE” value [3, 13] was 0.0, the “herbicidal effect rating, CYPSE” value [3, 14] was 0.0 and the “herbicidal effect rating, CYPSE” value [3, 15] was 6.0. For the same compound, the “herbicidal effect rating, MOOVA” value [4, 12] was 9.0, the “herbicidal effect rating, MOOVA” value [4, 13] was 9.0 and the “herbicidal effect rating, MOOVA” value [4, 14] was 9.0. For the same compound, the “herbicidal effect rating, MOOVA” value [4, 15] was 9.0, the “herbicidal effect rating, ECHORC” value [5, 12] was 9.0 and the “herbicidal effect rating, ECHORC” value [5, 13] was 9.0. For the same compound, the “herbicidal effect rating, ECHORC” value [5, 14] was 9.0 and the “herbicidal effect rating, ECHORC” value [5, 15] was 9.0.

`Cc1ccc(OCC(=O)OCCCCCO[Si](C)(C)C(C)(C)C)c(-c2nsc3ccc(-n4c(=O)cc(C(F)(F)F)n(C)c4=O)cc23)c1` [Example 534, Acetic acid, {{2-{5-[3,6-dihydro-3-methyl-2,6-dioxo-4-(trifluoromethyl)-1(2H)-pyrimidinyl]-1,2-benzisothiazol-3-yl}-p-tolyl}oxy}-, 5-(tert-butyldimethylsiloxy)pentyl ester] was tested, and the “herbicidal effect rating, CYPIR” value [1, 16] was 0.0, the “herbicidal effect rating, CYPIR” value [1, 17] was 3.0 and the “herbicidal effect rating, CYPIR” value [1, 18] was 3.0. For the same compound, the “herbicidal effect rating, CYPIR” value [1, 19] was 9.0, the “herbicidal effect rating, SAGPY” value [2, 16] was 0.0 and the “herbicidal effect rating, SAGPY” value [2, 17] was 0.0. The “herbicidal effect rating, SAGPY” value [2, 18] was 0.0, the “herbicidal effect rating, SAGPY” value [2, 19] was 0.0 and the “herbicidal effect rating, CYPSE” value [3, 16] was 0.0. For the same compound, the “herbicidal effect rating, CYPSE” value [3, 17] was 0.0, the “herbicidal effect rating, CYPSE” value [3, 18] was 0.0 and the “herbicidal effect rating, CYPSE” value [3, 19] was 0.0. The “herbicidal effect rating, MOOVA” value [4, 16] was 4.0, the “herbicidal effect rating, MOOVA” value [4, 17] was 9.0 and the “herbicidal effect rating, MOOVA” value [4, 18] was 9.0. For the same compound, the “herbicidal effect rating, MOOVA” value [4, 19] was 9.0, the “herbicidal effect rating, ECHORC” value [5, 16] was 3.5 and the “herbicidal effect rating, ECHORC” value [5, 17] was 4.5. The “herbicidal effect rating, ECHORC” value [5, 18] was 9.0 and the “herbicidal effect rating, ECHORC” value [5, 19] was 9.0.

With `Cn1c(C(F)(F)F)cc(=O)n(-c2ccc3snc(COC(=O)Cc4ccc(Cl)cc4Cl)c3c2)c1=O` [Example 401, 2,4(1H,3H)-Pyrimidinedione, 3-[3-(hydroxymethyl)-1,2-benzisothiazol-5-yl]-1-methyl-6-(trifluoromethyl)-, (2,4-dichlorophenyl)acetate (ester)] the “herbicidal effect rating, CYPIR” value [1, 12] was 3.0, the “herbicidal effect rating, CYPIR” value [1, 13] was 4.0 and the “herbicidal effect rating, CYPIR” value [1, 14] was 5.0. For the same compound, the “herbicidal effect rating, CYPIR” value [1, 15] was 6.0, the “herbicidal effect rating, SAGPY” value [2, 12] was 0.0 and the “herbicidal effect rating, SAGPY” value [2, 13] was 0.0. For the same compound, the “herbicidal effect rating, SAGPY” value [2, 14] was 2.0, the “herbicidal effect rating, SAGPY” value [2, 15] was 3.0 and the “herbicidal effect rating, CYPSE” value [3, 13] was 0.0. For the same compound, the “herbicidal effect rating, CYPSE” value [3, 14] was 0.0, the “herbicidal effect rating, CYPSE” value [3, 15] was 3.0 and the “herbicidal effect rating, MOOVA” value [4, 12] was 6.0. The “herbicidal effect rating, MOOVA” value [4, 13] was 7.0, the “herbicidal effect rating, MOOVA” value [4, 14] was 7.0 and the “herbicidal effect rating, MOOVA” value [4, 15] was 9.0. The “herbicidal effect rating, ECHORC” value [5, 12] was 0.0, the “herbicidal effect rating, ECHORC” value [5, 13] was 0.0 and the “herbicidal effect rating, ECHORC” value [5, 14] was 2.0. For the same compound, the “herbicidal effect rating, ECHORC” value [5, 15] was 6.0.
